Source: patent publication US6172081A, “Tetrahydroisoquinoline 3-carboxamide derivatives” (Novartis AG, priority 1999, dated 2001)
Where a name gives a salt, the structure may show the parent alone.

Columns and labels:
Type in all cases: biochemical
DPP-IV = molecular target: T1, DPP-IV (Homo sapiens, UniProt P27487); experiment: Caco-2 DPP-IV Assay (inhibition of DPP-IV activity from human colonic carcinoma cell extracts); conditions: Caco-2 cell extract; substrate H-Alanine-Proline-pNA; pH 7.4; room temperature, 10 minutes
T1 construct: DPP-IV activity from human colonic carcinoma cell extracts; endogenous in cells; host or cells: Caco-2 (ATCC HTB 37), differentiated to induce DPP-IV expression; nonidet-P40 extract
Description: As indicated above, all of the compounds of formula I, and their corresponding pharmaceutically acceptable acid addition salts, are useful in inhibiting DPP-IV. […] The human colonic carcinoma cell line Caco-2 was obtained from the American Type Culture Collection (ATCC HTB 37). Differentiation of the cells to induce DPP-IV expression was accomplished as described by Reisher, et al. in an article entitled "Increased expression of . . . intestinal cell line Caco-2" in Proc. Natl. Acad. Sci., Vol. 90, pgs. 5757-5761 (1993). Cell extract is prepared from cells solubilized in 10 mM Tris-HCl, 0.15 M NaCl, 0.04 t.i.u. aprotinin, 0.5% nonidet-P40, pH 8.0, which is centrifuged at 35,000 g for 30 min. at 4° C. to remove cell debris. The assay is conducted by adding […] solubilized Caco-2 protein, diluted to a final volume of 125 mL in assay buffer (25 mM Tris-HCl pH 7.4, 140 mM NaCl, 10 mM KCl, 1% bovine serum albumin) to microtiter plate wells. The reaction is initiated by adding 25 mL of 1 mM substrate (H-Alanine-Proline-pNA; pNA is p-nitroaniline). The reaction is run at room temperature for 10 minutes after which time a 19 mL volume of 25% glacial acetic acid is added to stop the reaction. Test compounds are typically added as 30 mL additions and the assay buffer volume is reduced to 95 mL. A standard curve of free p-nitroaniline is generated using […] solutions of free pNA in assay buffer. The curve generated is linear and is used for interpolation of substrate consumption (catalytic activity in nmoles substrate cleaved/min). The endpoint is determined by measuring absorbance at 405 nm in a Molecular Devices UV Max microtiter plate reader. The potency of the test compounds as DPP-IV inhibitors, expressed as IC50, is calculated from 8-point, dose-response curves using a 4-parameter logistic function.

human plasma DPP-IV = molecular target: T2, human plasma DPP-IV (Homo sapiens, UniProt P27487); experiment: Inhibition of DPP-IV activity in human plasma; conditions: substrate H-Glycine-Proline-AMC, pH 7.8, room temperature, 20 min
T2 construct: DPP-IV activity in human and rat plasma; from tissue; host or cells: human plasma
Method: (§1) 192-197 (1992). Briefly, five […] are added to 96-well flat-bottom mictotiter plates (Falcon), followed by the addition of 5 mL of 80 mM MgCl2 in incubation buffer (25 mM HEPES, 140 mM NaCl, 1% RIA-grade BSA, pH 7.8). After a 5 min. incubation at room temperature, the reaction is initiated by the addition of 10 mL of incubation buffer containing 0.1 mM substrate (H-Glycine-Proline-AMC; AMC is 7-amino-4-methylcoumarin). The plates are covered with aluminum foil (or kept in the dark,) and incubated at room temperature for 20 min. After the 20 min. reaction, fluorescence is measured using a CytoFluor 2350 fluorimeter (Excitation 380 nm Emission 460 nm; sensitivity setting 4). Test compounds are typically added as 2 mL additions and the assay buffer volume is reduced to 13 mL. A fluorescence-concentration curve of free AMC is generated using […] solutions of AMC in assay buffer. The curve generated is linear and is used for interpolation of substrate consumption (catalytic activity in nmoles substrate cleaved/min). As with the previous assay, the potency of the test compounds as DPP-IV inhibitors, expressed as IC50, is calculated from 8-point, dose-response curves using a 4 parameter logistic function.

rat plasma DPP-IV = molecular target: T3, rat plasma DPP-IV (Rattus norvegicus, UniProt P14740); experiment: Inhibition of DPP-IV activity in rat plasma; conditions: substrate H-Glycine-Proline-AMC, pH 7.8, room temperature, 20 min
T3 construct: DPP-IV activity in human and rat plasma; from tissue; host or cells: rat plasma
Method: as §1

T3 sequence (P14740 37-767 limits assumed): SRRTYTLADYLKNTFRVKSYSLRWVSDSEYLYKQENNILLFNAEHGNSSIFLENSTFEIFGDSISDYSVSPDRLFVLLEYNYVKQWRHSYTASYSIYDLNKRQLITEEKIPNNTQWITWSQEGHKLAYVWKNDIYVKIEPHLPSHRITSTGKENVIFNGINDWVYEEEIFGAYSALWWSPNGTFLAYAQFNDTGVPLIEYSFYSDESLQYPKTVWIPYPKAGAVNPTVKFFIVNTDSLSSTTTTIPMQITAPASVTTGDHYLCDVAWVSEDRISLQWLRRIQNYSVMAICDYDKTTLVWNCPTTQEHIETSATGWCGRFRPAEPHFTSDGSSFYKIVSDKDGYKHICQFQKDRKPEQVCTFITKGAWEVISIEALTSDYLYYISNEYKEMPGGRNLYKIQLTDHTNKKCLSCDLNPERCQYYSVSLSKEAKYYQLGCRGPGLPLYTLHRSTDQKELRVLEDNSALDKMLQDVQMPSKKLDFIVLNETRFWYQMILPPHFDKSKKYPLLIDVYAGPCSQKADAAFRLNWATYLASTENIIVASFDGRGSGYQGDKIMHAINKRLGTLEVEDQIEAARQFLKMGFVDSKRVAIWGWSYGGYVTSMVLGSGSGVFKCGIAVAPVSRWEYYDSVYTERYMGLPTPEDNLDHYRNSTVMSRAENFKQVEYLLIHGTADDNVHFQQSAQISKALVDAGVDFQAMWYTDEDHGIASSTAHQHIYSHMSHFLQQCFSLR
T1 sequence (P27487 whole entry): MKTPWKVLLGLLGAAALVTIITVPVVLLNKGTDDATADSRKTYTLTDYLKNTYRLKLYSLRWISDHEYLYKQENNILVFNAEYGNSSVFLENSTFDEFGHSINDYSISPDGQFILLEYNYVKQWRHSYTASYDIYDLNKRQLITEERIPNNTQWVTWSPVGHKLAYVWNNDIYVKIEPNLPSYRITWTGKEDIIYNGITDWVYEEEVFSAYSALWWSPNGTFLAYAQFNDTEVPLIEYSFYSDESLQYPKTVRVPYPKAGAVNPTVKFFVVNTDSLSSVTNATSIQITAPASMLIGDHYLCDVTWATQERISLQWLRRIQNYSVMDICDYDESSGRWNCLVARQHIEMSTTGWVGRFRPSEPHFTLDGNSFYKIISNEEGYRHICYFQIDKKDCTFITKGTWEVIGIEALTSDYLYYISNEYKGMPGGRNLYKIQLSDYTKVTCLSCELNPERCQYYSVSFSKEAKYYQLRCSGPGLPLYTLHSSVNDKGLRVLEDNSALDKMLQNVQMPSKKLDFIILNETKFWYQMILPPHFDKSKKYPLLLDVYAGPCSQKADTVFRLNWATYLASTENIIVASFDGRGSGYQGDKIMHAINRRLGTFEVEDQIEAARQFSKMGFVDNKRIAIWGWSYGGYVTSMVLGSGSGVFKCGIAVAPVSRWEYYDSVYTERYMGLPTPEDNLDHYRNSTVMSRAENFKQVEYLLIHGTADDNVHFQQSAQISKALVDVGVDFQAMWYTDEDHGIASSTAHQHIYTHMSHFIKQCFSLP
T2 sequence (P27487 39-766 limits assumed): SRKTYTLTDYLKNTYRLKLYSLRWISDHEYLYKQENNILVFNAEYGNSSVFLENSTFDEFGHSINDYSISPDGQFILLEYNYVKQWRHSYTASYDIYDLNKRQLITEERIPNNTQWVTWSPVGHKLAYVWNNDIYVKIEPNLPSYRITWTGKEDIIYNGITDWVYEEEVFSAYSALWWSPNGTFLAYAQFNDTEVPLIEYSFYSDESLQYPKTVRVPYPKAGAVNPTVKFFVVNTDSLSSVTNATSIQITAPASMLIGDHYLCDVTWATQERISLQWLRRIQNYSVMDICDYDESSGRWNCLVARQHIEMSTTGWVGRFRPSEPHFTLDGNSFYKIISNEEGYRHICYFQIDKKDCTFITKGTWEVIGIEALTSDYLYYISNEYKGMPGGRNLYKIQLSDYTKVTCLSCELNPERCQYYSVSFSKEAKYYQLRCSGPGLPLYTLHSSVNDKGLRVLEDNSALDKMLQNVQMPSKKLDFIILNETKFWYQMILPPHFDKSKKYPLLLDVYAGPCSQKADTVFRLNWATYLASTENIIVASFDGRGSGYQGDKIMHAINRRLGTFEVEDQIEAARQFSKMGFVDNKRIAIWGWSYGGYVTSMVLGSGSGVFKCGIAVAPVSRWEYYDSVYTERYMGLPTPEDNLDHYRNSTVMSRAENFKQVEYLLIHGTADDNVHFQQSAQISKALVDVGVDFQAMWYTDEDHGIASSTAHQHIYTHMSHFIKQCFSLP

| IC50 (DPP-IV) [µM] | IC50 (human plasma DPP-IV) [µM] | IC50 (rat plasma DPP-IV) [µM] | SMILES |
| --- | --- | --- | --- |
| 0.013 | 0.012 | 0.078 | COc1cc2c(cc1OC)CC(C(=O)N1CCC[C@H]1C#N)NC2 (single isomer, unassigned; diastereomer b) [Ex. 7, 1-[1,2,3,4-tetrahydro-6,7-dimethoxy-3-isoquinolinyl]carbonyl-2-Pyrrolidinecarbonitrile [Diastereomer B]] |
| 0.0076 | 0.041 | 0.79 | N#C[C@@H]1CCCN1C(=O)[C@@H]1Cc2ccccc2CN1 [Ex. 1, [S-(R*,R*)]-1-(1,2,3,4-tetrahydro-3-isoquinolinyl)carbonyl-2-pyrrolidinecarbonitrile trifluoroacetate] |
| 0.004 | – | – | N#C[C@@H]1CCCN1C(=O)[C@@H]1Cc2ccc(O)cc2CN1 [Ex. 2, [S-(R*,R*)]-1-(1,2,3,4-tetrahydro-7-hydroxy-3-isoquinolinyl)carbonyl-2-Pyrrolidinecarbonitrile trifluoroacetate] |
| 0.014 | 0.004 | 0.016 | COc1ccc2c(c1)CN[C@H](C(=O)N1CCC[C@H]1C#N)C2 [Ex. 3, [S-(R*,R*)]-1-(1,2,3,4-tetrahydro-7-methoxy-3-isoquinolinyl)carbonyl-2-Pyrrolidinecarbonitrile trifluoroacetate] |
| 0.009 | 0.167 | 1.3 | N#C[C@@H]1CCCN1C(=O)[C@@H]1Cc2ccc(OCc3ccccc3)cc2CN1 [Ex. 4, [S-(R*,R*)]-1-(1,2,3,4-tetrahydro-7-phenylmethoxy-3-isoquinolinyl)carbonyl-2-Pyrrolidinecarbonitrile trifluoroacetate] |
| 0.008 | 0.049 | 0.315 | CCCOc1ccc2c(c1)CN[C@H](C(=O)N1CCC[C@H]1C#N)C2 [Ex. 5, [S-(R*,R*)]-1-(1,2,3,4-tetrahydro-7-propoxy-3-isoquinolinyl)carbonyl-2-Pyrrolidinecarbonitrile trifluoroacetate] |
| > 10 | – | – | COc1cc2c(cc1OC)CC(C(=O)N1CCC[C@H]1C#N)NC2 (stereo partly drawn) [Ex. 6, [S-(R*,R*)]-1-[1,2,3,4-tetrahydro-6,7-dimethoxy-3-isoquinolinyl]carbonyl-2-Pyrrolidinecarbonitrile] |
| 0.01 | – | – | CCN(CC)CCCOc1ccc2c(c1)CNC(C(=O)N1CCCC1C#N)C2 (stereo not drawn) [Ex. 8, [S-(R*,R*)]-1-[7-(3-diethylamino)propoxy-1,2,3,4-tetrahydro-3-isoquinolinyl]carbonyl-2-Pyrrolidinecarbonitrile] |
| 0.01 | – | – | CCOCCOCCOc1ccc2c(c1)CN[C@H](C(=O)N1CCC[C@H]1C#N)C2 [Ex. 9, [S-(R*,R*)]-1-[7-[2-(2-ethoxyethoxy)ethoxy]-1,2,3,4-tetrahydro-3-isoquinolinyl]carbonyl-2-Pyrrolidinecarbonitrile trifluoroacetate] |
| 0.016 | 0.005 | 0.012 | N#C[C@@H]1CCCN1C(=O)[C@@H]1Cc2ccc(OCC(N)=O)cc2CN1 [Ex. 10, [S-(R*,R*)]-[3-(2-cyano-1-pyrrolidinyl)carbonyl-1,2,3,4-tetrahydro-7-isoquinolinyl]oxy-Acetamide] |
| 0.01 | – | – | N#C[C@@H]1CCCN1C(=O)[C@@H]1Cc2ccc(OCC(=O)O)cc2CN1 [Ex. 11, [S-(R*,R*)]-[3-(2-cyano-1-pyrrolidinyl)carbonyl-1,2,3,4-tetrahydro-7-isoquinolinyl]oxy-Acetic acid] |
